# Key:
# Type in all cases: functional
# Bacillus subtilis = assay: Antimicrobial activity against Bacillus subtilis ATCC 6633 by MTT assay
# Pseudomonas aeruginosa = assay: Antimicrobial activity against Pseudomonas aeruginosa ATCC 13525 by MTT assay
# Enterobacter cloacae = assay: Antimicrobial activity against Enterobacter cloacae ATCC 13047 by MTT assay
# Escherichia coli = assay: Antimicrobial activity against Escherichia coli ATCC 35218 by MTT assay
# Staphylococcus aureus = assay: Antimicrobial activity against Staphylococcus aureus ATCC 6538 by MTT assay
# Enterococcus faecalis = assay: Antimicrobial activity against Streptococcus faecalis ATCC 9790 by MTT assay
SMILES,MIC (Bacillus subtilis) [µg/mL],MIC (Pseudomonas aeruginosa) [µg/mL],MIC (Enterobacter cloacae) [µg/mL],MIC (Escherichia coli) [µg/mL],MIC (Staphylococcus aureus) [µg/mL],MIC (Enterococcus faecalis) [µg/mL]
COc1ccc(C2CC(c3ccccc3F)=NN2C(C)=O)cc1 (centres undefined),6.25,25,25,12.5,25,12.5
NC[C@H]1O[C@H](O[C@H]2[C@H](O)[C@@H](O[C@H]3O[C@H](CO)[C@@H](O)[C@H](N)[C@H]3O)[C@H](N)C[C@@H]2N)[C@H](N)[C@@H](O)[C@@H]1O [BEKANAMYCIN],0.39,3.12,1.56,1.56,3.12,3.12
CC(=O)N1N=C(c2ccc(Cl)cc2)CC1c1ccc(F)cc1 (centres undefined),12.5,12.5,25,25,12.5,1.56
CC(=O)N1N=C(c2ccc(Br)cc2)CC1c1ccc(F)cc1 (centres undefined),25,3.12,12.5,12.5,1.56,1.56
CC(=O)N1N=C(c2ccc(Cl)cc2)CC1c1ccc(C)cc1 (centres undefined),6.25,12.5,12.5,12.5,12.5,25
CC(=O)N1N=C(c2ccccc2F)CC1c1ccc(Br)cc1 (centres undefined),25,12.5,12.5,25,25,25
COc1ccc(C2CC(c3ccccc3)=NN2C(C)=O)cc1 (centres undefined),> 50,12.5,> 50,> 50,12.5,50
CC(=O)N1N=C(c2ccc(C)c(C)c2)CC1c1ccc(Br)cc1 (centres undefined),25,12.5,3.12,25,12.6,50
CC(=O)N1N=C(c2ccccc2)CC1c1ccccc1 (centres undefined),25,12.5,12.5,25,25,12.5
CC(=O)N1N=C(c2ccccc2)CC1c1ccccc1Cl (centres undefined),25,25,25,> 50,> 50,25
COc1cc(OC)cc(C2CC(c3ccc(C)c(C)c3)=NN2C(C)=O)c1 (centres undefined),12.5,3.12,25,> 50,> 50,12.5
CC(=O)N1N=C(c2ccccc2)CC1c1ccc(Cl)cc1 (centres undefined),> 50,12.5,25,25,12.5,12.5
CC(=O)N1N=C(c2ccc(C)c(C)c2)CC1c1ccccc1Cl (centres undefined),> 50,6.25,> 50,25,25,50
CC(=O)N1N=C(c2ccc(C)c(C)c2)CC1c1ccc(C)cc1 (centres undefined),12.5,3.12,> 50,> 50,3.12,12.5
CC(=O)N1N=C(c2ccc(Br)cc2)CC1c1ccc(Cl)cc1 (centres undefined),25,3.12,12.5,25,3.12,6.25
COc1cc(OC)cc(C2CC(c3ccc(Cl)c(Cl)c3)=NN2C(C)=O)c1 (centres undefined),12.5,12.5,12.5,> 50,25,50
COc1ccc(C2CC(c3ccc(Cl)c(Cl)c3)=NN2C(C)=O)cc1 (centres undefined),3.12,12.5,25,> 50,25,6.25
COc1cc(OC)cc(C2CC(c3ccccc3F)=NN2C(C)=O)c1 (centres undefined),6.25,12.5,> 50,12.5,25,12.5
CC(=O)N1N=C(c2ccccc2)CC1c1ccc(C)cc1 (centres undefined),> 50,12.5,25,25,> 50,6.25
CC(=O)N1N=C(c2ccccc2)CC1c1ccc(F)cc1 (centres undefined),25,12.5,12.5,25,25,50
CC(=O)N1N=C(c2ccc(Br)cc2)CC1c1ccc(C)cc1 (centres undefined),25,1.56,6.25,25,6.25,50
CC(=O)N1N=C(c2ccccc2F)CC1c1ccc(Cl)cc1 (centres undefined),12.5,12.5,> 50,25,> 50,12.5
CC(=O)N1N=C(c2ccc(Br)cc2)CC1c1ccccc1 (centres undefined),50,12.5,> 50,12.5,6.25,25
CC(=O)N1N=C(c2ccc(C)c(C)c2)CC1c1ccc(F)cc1 (centres undefined),25,6.25,12.5,25,1.56,12.5

# — ChEMBL document CHEMBL1208728, “Design, synthesis, and structure-activity relationships of pyrazole derivatives as potential FabH inhibitors” (Bioorg Med Chem Lett, 2010)
